Results reported in patent publication US9163008B2, “Pyrimidines as sodium channel blockers” (Purdue Pharma, L.P., priority 2011, dated 2015).

These compounds were tested against human Nav1.7 (Homo sapiens (Human), UniProt Q15858) (assay: FLIPR sodium dye assay (CoroNa Green) with KCl and test article pre-incubation). Conditions: not given.
human Nav1.7, sequence (Q15858 other isoform, or with tags, fused parts or gaps): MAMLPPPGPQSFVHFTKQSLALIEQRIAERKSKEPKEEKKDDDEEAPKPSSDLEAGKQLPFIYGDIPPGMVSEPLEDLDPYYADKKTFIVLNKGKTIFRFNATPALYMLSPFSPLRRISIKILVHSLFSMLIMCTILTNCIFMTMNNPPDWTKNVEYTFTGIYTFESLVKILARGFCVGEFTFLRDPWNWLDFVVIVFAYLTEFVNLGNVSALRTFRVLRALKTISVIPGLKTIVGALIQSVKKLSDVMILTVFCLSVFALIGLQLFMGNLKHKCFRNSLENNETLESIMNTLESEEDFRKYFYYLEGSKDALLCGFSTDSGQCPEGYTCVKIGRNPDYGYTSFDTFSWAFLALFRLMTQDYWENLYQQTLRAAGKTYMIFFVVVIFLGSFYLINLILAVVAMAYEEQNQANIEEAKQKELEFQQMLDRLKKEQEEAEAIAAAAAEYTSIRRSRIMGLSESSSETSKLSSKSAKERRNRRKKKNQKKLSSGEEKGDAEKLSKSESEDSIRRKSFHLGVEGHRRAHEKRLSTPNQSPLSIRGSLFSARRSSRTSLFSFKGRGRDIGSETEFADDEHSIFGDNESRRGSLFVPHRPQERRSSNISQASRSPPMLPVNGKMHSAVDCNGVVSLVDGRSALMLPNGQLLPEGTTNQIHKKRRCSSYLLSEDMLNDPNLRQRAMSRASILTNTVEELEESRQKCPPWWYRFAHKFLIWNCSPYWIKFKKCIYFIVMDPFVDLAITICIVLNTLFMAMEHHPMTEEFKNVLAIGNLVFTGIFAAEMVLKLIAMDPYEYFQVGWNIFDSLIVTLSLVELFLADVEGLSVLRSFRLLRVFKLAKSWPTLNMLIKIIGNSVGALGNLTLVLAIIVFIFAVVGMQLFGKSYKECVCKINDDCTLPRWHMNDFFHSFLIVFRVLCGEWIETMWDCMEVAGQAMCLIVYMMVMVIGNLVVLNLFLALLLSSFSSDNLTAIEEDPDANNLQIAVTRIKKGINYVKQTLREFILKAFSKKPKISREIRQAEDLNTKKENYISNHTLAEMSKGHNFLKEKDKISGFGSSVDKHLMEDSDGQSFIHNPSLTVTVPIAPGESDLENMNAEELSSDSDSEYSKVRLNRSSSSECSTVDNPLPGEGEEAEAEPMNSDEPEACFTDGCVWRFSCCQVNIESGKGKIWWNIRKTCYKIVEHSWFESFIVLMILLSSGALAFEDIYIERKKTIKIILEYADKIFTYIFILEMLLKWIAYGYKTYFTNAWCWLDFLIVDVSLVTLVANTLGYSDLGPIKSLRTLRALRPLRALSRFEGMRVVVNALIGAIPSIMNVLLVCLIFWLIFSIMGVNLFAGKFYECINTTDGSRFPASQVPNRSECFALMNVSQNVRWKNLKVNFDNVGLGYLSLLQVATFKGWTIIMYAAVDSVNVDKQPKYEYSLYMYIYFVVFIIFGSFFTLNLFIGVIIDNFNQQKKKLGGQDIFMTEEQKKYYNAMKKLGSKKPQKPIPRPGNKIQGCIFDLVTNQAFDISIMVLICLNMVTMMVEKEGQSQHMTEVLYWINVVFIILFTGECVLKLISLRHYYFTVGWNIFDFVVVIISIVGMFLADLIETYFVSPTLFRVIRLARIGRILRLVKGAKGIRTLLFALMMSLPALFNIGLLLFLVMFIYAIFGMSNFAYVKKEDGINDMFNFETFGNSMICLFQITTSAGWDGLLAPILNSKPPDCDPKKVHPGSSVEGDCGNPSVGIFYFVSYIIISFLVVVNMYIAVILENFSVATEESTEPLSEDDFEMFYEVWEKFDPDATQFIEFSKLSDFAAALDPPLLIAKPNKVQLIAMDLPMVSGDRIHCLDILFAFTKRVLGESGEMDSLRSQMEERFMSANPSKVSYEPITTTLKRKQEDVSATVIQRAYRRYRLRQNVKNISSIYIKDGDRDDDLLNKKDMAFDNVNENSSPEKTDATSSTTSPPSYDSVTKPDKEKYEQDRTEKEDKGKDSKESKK
Format: cell-based
`NC(=O)c1cc(N2CCCC(C(N)=O)C2)nc(-c2ccc(Oc3ccc(F)cc3)cc2)n1` (stereo not drawn) [Cpd No. 24, 6-(3-carbamoylpiperidin-1-yl)-2-(4-(4-fluorophenoxy)phenyl)pyrimidine-4-carboxamide] was tested, and the IC50 was 10000 to 20000 nM.

Same assay, conditions: read-out: Nav1.7 Activity FLIPR assay IC50
`NC(=O)c1cc(NC2(C(N)=O)CC2)nc(-c2ccc(Oc3ccc(F)cc3)cc2)n1` [Cpd No. 8, 6-((1-carbamoylcyclopropyl)amino)-2-(4-(4-fluorophenoxy)phenyl)pyrimidine-4-carboxamide] gave an IC50 of 420 nM.
In the case of `CCOC(=O)[C@@H]1Cc2ccccc2N1c1cc(C(N)=O)nc(-c2ccc(Oc3ccc(F)cc3)cc2)n1` [Cpd No. 16, (S)-ethyl 1-(6-carbamoyl-2-(4-(4-fluorophenoxy)phenyl)pyrimidin-4-yl) indoline-2-carboxylate], the IC50 is reported as > 20000 nM.
For `C[C@@H](C(N)=O)N(C)c1cc(C(N)=O)nc(-c2ccc(Oc3ccc(F)cc3)cc2)n1` [Cpd No. 20, (S)-6-((1-amino-1-oxopropan-2-yl)(methyl)amino)-2-(4-(4-fluorophenoxy)phenyl)pyrimidine-4-carboxamide], the IC50 was 220 nM.
With `CC(Nc1cc(C(N)=O)nc(-c2ccc(Oc3ccc(F)cc3)cc2)n1)C(N)=O` (stereo not drawn) [Cpd No. 22, 6-((1-amino-1-oxopropan-2-yl)amino)-2-(4-(4-fluorophenoxy)phenyl)pyrimidine-4-carboxamide] the IC50 was 550 nM.
For `CC(CC(N)=O)Nc1cc(C(N)=O)nc(-c2ccc(Oc3ccc(F)cc3)cc2)n1` (stereo not drawn) [Cpd No. 23, 6-((4-amino-4-oxobutan-2-yl)amino)-2-(4-(4-fluorophenoxy)phenyl)pyrimidine-4-carboxamide], the IC50 was 300 nM.
Compound `COC(=O)[C@H](C)Nc1cc(C(=O)O)nc(-c2ccc(Oc3ccc(F)cc3)cc2)n1` [Cpd No. 33, (S)-2-(4-(4-fluorophenoxy)phenyl)-6-((1-methoxy-1-oxopropan-2-yl)amino)pyrimidine-4-carboxylic acid] has an IC50 of 970 nM.
`NC(=O)c1cc(N2CCNCC2CO)nc(-c2ccc(Oc3ccc(F)cc3)cc2)n1` (stereo not drawn) [Cpd No. 48, 2-(4-(4-fluorophenoxy)phenyl)-6-(2-(hydroxymethyl)piperazin-1-yl)pyrimidine-4-carboxamide] gave an IC50 of 170 nM.
`C[C@H](Nc1cc(C(N)=O)nc(-c2ccc(O)cc2)n1)C(N)=O` [Cpd No. 65, 6-((S)-1-Carbamoyl-ethylamino)-2-(4-hydroxy-phenyl)-pyrimidine-4-carboxylic acid amide] was tested, and the IC50 was > 20000 nM.
`C[C@H](Nc1cc(C(N)=O)nc(Oc2ccc(C(F)(F)F)cc2-c2ccnnc2)n1)C(N)=O` [Cpd No. 72, (S)-6-((1-amino-1-oxopropan-2-yl)amino)-2-(2-(pyridazin-4-yl)-4-(trifluoromethyl)phenoxy)pyrimidine-4-carboxamide] showed an IC50 of 1420 nM.
`NC(=O)c1cc(N2CCC[C@H]2C(N)=O)nc(-c2ccc(Oc3ccc(C(F)(F)F)cc3)cc2)n1` [Cpd No. 91, (S)-6-(2-carbamoylpyrrolidin-1-yl)-2-(4-(4-(trifluoromethyl)phenoxy)phenyl)pyrimidine-4-carboxamide] showed an IC50 of 200 nM.
`C[C@H](Nc1cc(C(N)=O)nc(N2CCC3(CC2)Cc2ccccc2C3)n1)C(N)=O` [compound 73, (S)-6-((1-amino-1-oxopropan-2-yl)amino)-2-(1,3-dihydrospiro[indene-2,4′-piperidin]-1′-yl)pyrimidine-4-carboxamide] showed an IC50 of 1800 nM.
Compound `NC(=O)c1cc(N2CCC[C@H]2C(N)=O)nc(-c2ccc(Oc3ccc(Cl)cc3F)cc2)n1` [compound 78, (S)-6-(2-carbamoylpyrrolidin-1-yl)-2-(4-(4-chloro-2-fluorophenoxy)phenyl)pyrimidine-4-carboxamide] has an IC50 of 120 nM.

Same assay, conditions: recombinant human Nav1.7 in HEK293; veratridine and scorpion venom agonists; read-out: Nav1.7 Activity FLIPR assay IC50
For `NC(=O)CCNc1cc(C(N)=O)nc(-c2ccc(Oc3ccc(F)cc3)cc2)n1` [Cpd No. 19, 6-((3-amino-3-oxopropyl)amino)-2-(4-(4-fluorophenoxy)phenyl)pyrimidine-4-carboxamide], the IC50 was > 20000 nM.
Compound `C[C@H](Nc1cc(C(N)=O)nc(-c2ccc(Oc3ccc(F)cc3)cc2)n1)C(=O)O` [Cpd No. 28, (S)-2-((6-carbamoyl-2-(4-(4-fluorophenoxy)phenyl)pyrimidin-4-yl)amino)propanoic acid] has an IC50 of 10000 to 20000 nM.
With `O=C(O)c1cc(N2CCC[C@H]2C(=O)O)nc(-c2ccc(Oc3ccc(F)cc3)cc2)n1` [Cpd No. 29, (S)-6-(2-carboxypyrrolidin-1-yl)-2-(4-(4-fluorophenoxy)phenyl)pyrimidine-4-carboxylic acid] the IC50 was > 20000 nM.
With `NC(=O)c1cc(N2CCC[C@H]2C(=O)O)nc(-c2ccc(Oc3ccc(F)cc3)cc2)n1` [Cpd No. 30, (S)-1-(6-carbamoyl-2-(4-(4-fluorophenoxy)phenyl)pyrimidin-4-yl)pyrrolidine-2-carboxylic acid] the IC50 was > 20000 nM.
`NC(=O)c1cc(N2c3ccccc3C[C@H]2C(=O)O)nc(-c2ccc(Oc3ccc(F)cc3)cc2)n1` [Cpd No. 31, (S)-1-(6-carbamoyl-2-(4-(4-fluorophenoxy)phenyl)pyrimidin-4-yl)indoline-2-carboxylic acid] was tested, and the IC50 was > 20000 nM.
With `C[C@H](Nc1cc(C(N)=O)nc(-c2ccc(Oc3ccc(C#N)cn3)cc2)n1)C(N)=O` [Cpd No. 37, (S)-6-((1-amino-1-oxopropan-2-yl)amino)-2-(4-((5-cyanopyridin-2-yl)oxy)phenyl)pyrimidine-4-carboxamide] the IC50 was 10000 to 20000 nM.
With `NC(=O)c1cc(NC[C@H](O)CO)nc(-c2ccc(Oc3ccc(F)cc3)cc2)n1` [Cpd No. 46, (S)-6-((2,3-dihydroxypropyl)amino)-2-(4-(4-fluorophenoxy)phenyl)pyrimidine-4-carboxamide] the IC50 was > 20000 nM.
With `NC(=O)c1cc(NC[C@H](O)C(N)=O)nc(-c2ccc(Oc3ccc(F)cc3)cc2)n1` [Cpd No. 50, (S)-6-((3-amino-2-hydroxy-3-oxopropyl)amino)-2-(4-(4-fluorophenoxy)phenyl)pyrimidine-4-carboxamide] the IC50 was > 20000 nM.
With `NC(=O)c1cc(NC[C@H](O)C(=O)O)nc(-c2ccc(Oc3ccc(F)cc3)cc2)n1` [Cpd No. 51, (S)-3-((6-carbamoyl-2-(4-(4-fluorophenoxy)phenyl)pyrimidin-4-yl)amino)-2-hydroxypropanoic acid] the IC50 was > 20000 nM.
`C[C@H](Nc1cc(C(N)=O)nc(-c2ccc(Oc3ccc(C#N)cc3)cc2)n1)C(N)=O` [Cpd No. 66, 6-((S)-1-Carbamoyl-ethylamino)-2-[4-(4-cyano-phenoxy)-phenyl]-pyrimidine-4-carboxylic acid amide] was tested, and the IC50 was 410 nM.
For `C[C@H](Nc1cc(C(N)=O)nc(Oc2ccc(Cl)cc2-c2ccnc(N)c2)n1)C(N)=O` [Cpd No. 67, (S)-6-((1-amino-1-oxopropan-2-yl)amino)-2-(2-(2-aminopyridin-4-yl)-4-chlorophenoxy)pyrimidine-4-carboxamide], the IC50 was > 20000 nM.
`C[C@H](Nc1cc(C(N)=O)nc(-c2ccnc(Oc3ccc(F)cc3)c2)n1)C(N)=O` [Cpd No. 68, (S)-6-((1-amino-1-oxopropan-2-yl)amino)-2-(2-(4-fluorophenoxy)pyridin-4-yl)pyrimidine-4-carboxamide] was tested, and the IC50 was > 20000 nM.
`C[C@H](Nc1cc(C(N)=O)nc(N2CCN(C(c3ccc(F)cc3)c3ccc(F)cc3)CC2)n1)C(N)=O` [Cpd No. 71, (S)-6-((1-amino-1-oxopropan-2-yl)amino)-2-(4-(bis(4-fluorophenyl)methyl)piperazin-1-yl)pyrimidine-4-carboxamide] was tested, and the IC50 was > 20000 nM.
In the case of `NC(=O)c1cc(N2c3ccccc3C[C@H]2C(N)=O)nc(-c2ccc(Oc3ccc(F)cc3)cc2)n1` [Example 36], the IC50 is reported as > 20000 nM.
